Measurements as given in article PMC4620497 (Scientific Reports, 2015).
pKd: −log10 of the molar value.

Key:
[1] = biological target: T1, WEE2 (Homo sapiens, UniProt P0C1S8); assay: KINOMEscan panel screen; assay type: binding; details: read-out: Percent Control(%)
T1 construct: purchased DiscoveRx KINOMEscan (Ambit Biosciences)

[2] = biological target: T2, PIK3CA(H1047Y) (Homo sapiens, UniProt P42336, H1047Y); assay: KINOMEscan panel screen; assay type: binding; details: read-out: Percent Control(%)
T2 construct: purchased DiscoveRx KINOMEscan (Ambit Biosciences)

[3] = biological target: T3, YES (Homo sapiens, UniProt P07947); assay: KINOMEscan panel screen; assay type: binding; details: read-out: Percent Control(%)
T3 construct: purchased DiscoveRx KINOMEscan (Ambit Biosciences)

[4] = biological target: T4, FER (Homo sapiens, UniProt P16591); assay: KINOMEscan panel screen; assay type: binding; details: read-out: Percent Control(%)
T4 construct: purchased DiscoveRx KINOMEscan (Ambit Biosciences)

[5] = biological target: T5, SNRK (Homo sapiens, UniProt Q9NRH2); assay: KINOMEscan panel screen; assay type: binding; details: read-out: Percent Control(%)
T5 construct: purchased DiscoveRx KINOMEscan (Ambit Biosciences)

[6] = biological target: T6, ACVR2B (Homo sapiens, UniProt Q13705); assay: KINOMEscan panel screen; assay type: binding; details: read-out: Percent Control(%)
T6 construct: purchased DiscoveRx KINOMEscan (Ambit Biosciences)

[7] = biological target: T7, TLK1 (Homo sapiens, UniProt Q9UKI8); assay: KINOMEscan panel screen; assay type: binding; details: read-out: Percent Control(%)
T7 construct: purchased DiscoveRx KINOMEscan (Ambit Biosciences)

[8] = biological target: T8, NEK9 (Homo sapiens, UniProt Q8TD19); assay: KINOMEscan panel screen; assay type: binding; details: read-out: Percent Control(%)
T8 construct: purchased DiscoveRx KINOMEscan (Ambit Biosciences)

[9] = biological target: T9, PIK3CD (Homo sapiens, UniProt O00329); assay: KINOMEscan panel screen; assay type: binding; details: read-out: Percent Control(%)
T9 construct: purchased DiscoveRx KINOMEscan (Ambit Biosciences)

[10] = biological target: T10, CSNK1G2 (Homo sapiens, UniProt P78368); assay: KINOMEscan panel screen; assay type: binding; details: read-out: Percent Control(%)
T10 construct: purchased DiscoveRx KINOMEscan (Ambit Biosciences)

[11] = biological target: T11, PRKX (Homo sapiens, UniProt P51817); assay: KINOMEscan panel screen; assay type: binding; details: read-out: Percent Control(%)
T11 construct: purchased DiscoveRx KINOMEscan (Ambit Biosciences)

[12] = biological target: T12, SIK2 (Homo sapiens, UniProt Q9H0K1); assay: KINOMEscan panel screen; assay type: binding; details: read-out: Percent Control(%)
T12 construct: purchased DiscoveRx KINOMEscan (Ambit Biosciences)

[13] = biological target: T13, NIM1 (Homo sapiens, UniProt Q8IY84); assay: KINOMEscan panel screen; assay type: binding; details: read-out: Percent Control(%)
T13 construct: purchased DiscoveRx KINOMEscan (Ambit Biosciences)

[14] = biological target: T14, TNK1 (Homo sapiens, UniProt Q13470); assay: KINOMEscan panel screen; assay type: binding; details: read-out: Percent Control(%)
T14 construct: purchased DiscoveRx KINOMEscan (Ambit Biosciences)

[15] = biological target: T15, DCAMKL1 (Homo sapiens, UniProt O15075); assay: KINOMEscan panel screen; assay type: binding; details: read-out: Percent Control(%)
T15 construct: purchased DiscoveRx KINOMEscan (Ambit Biosciences)

[16] = biological target: T16, SRMS (Homo sapiens, UniProt Q9H3Y6); assay: KINOMEscan panel screen; assay type: binding; details: read-out: Percent Control(%)
T16 construct: purchased DiscoveRx KINOMEscan (Ambit Biosciences)

[17] = biological target: T17, FLT3-autoinhibited (Homo sapiens, UniProt P36888); assay: KINOMEscan panel screen; assay type: binding; details: read-out: Percent Control(%)
T17 construct: purchased DiscoveRx KINOMEscan (Ambit Biosciences)

[18] = biological target: ROCK1 (Homo sapiens, UniProt Q13464); assay: KINOMEscan panel screen; assay type: binding; details: read-out: Percent Control(%)
[19] = biological target: T18, STK36 (Homo sapiens, UniProt Q9NRP7); assay: KINOMEscan panel screen; assay type: binding; details: read-out: Percent Control(%)
T18 construct: purchased DiscoveRx KINOMEscan (Ambit Biosciences)

[20] = biological target: T19, NEK11 (Homo sapiens, UniProt Q8NG66); assay: KINOMEscan panel screen; assay type: binding; details: read-out: Percent Control(%)
T19 construct: purchased DiscoveRx KINOMEscan (Ambit Biosciences)

[21] = biological target: T20, STK39 (Homo sapiens, UniProt Q9UEW8); assay: KINOMEscan panel screen; assay type: binding; details: read-out: Percent Control(%)
T20 construct: purchased DiscoveRx KINOMEscan (Ambit Biosciences)

[22] = biological target: T21, GRK1 (Homo sapiens, UniProt Q15835); assay: KINOMEscan panel screen; assay type: binding; details: read-out: Percent Control(%)
T21 construct: purchased DiscoveRx KINOMEscan (Ambit Biosciences)

[23] = biological target: T22, ABL1(Y253F)-phosphorylated (Homo sapiens, UniProt P00519, Y253F); assay: KINOMEscan panel screen; assay type: binding; details: read-out: Percent Control(%)
T22 construct: purchased DiscoveRx KINOMEscan (Ambit Biosciences)

[24] = biological target: ERN1 (Homo sapiens, UniProt O75460); assay: KINOMEscan kinase binding assay (Kd); details: Table S1
Description: (§1) In vitro KINOMEscan kinase binding assays (Ambit Biosciences) were employed to determine the binding affinity (Kd) of compounds[41][42].
(§2) compound 1. The y have very similar spectrum of activity in enz ymatic and cellular
(§3) levels. Both of them have the ability to inhibit Wnt/β -catenin si gnalin g. However, in […]

[25] = biological target: T23, IGF1R (Homo sapiens, UniProt P08069); assay: KINOMEscan kinase binding assay (Kd); details: Table S1
T23 construct: DNA tag (qPCR read-out); purchased Ambit Biosciences (KINOMEscan service)
Description: as §1, §2, §3

[26] = biological target: T24, CAMK4 (Homo sapiens, UniProt Q16566); assay: KINOMEscan kinase binding assay (Kd); details: Table S1
T24 construct: purchased DiscoveRx KINOMEscan (Ambit Biosciences)
T24 sequence (Q16566 1-473): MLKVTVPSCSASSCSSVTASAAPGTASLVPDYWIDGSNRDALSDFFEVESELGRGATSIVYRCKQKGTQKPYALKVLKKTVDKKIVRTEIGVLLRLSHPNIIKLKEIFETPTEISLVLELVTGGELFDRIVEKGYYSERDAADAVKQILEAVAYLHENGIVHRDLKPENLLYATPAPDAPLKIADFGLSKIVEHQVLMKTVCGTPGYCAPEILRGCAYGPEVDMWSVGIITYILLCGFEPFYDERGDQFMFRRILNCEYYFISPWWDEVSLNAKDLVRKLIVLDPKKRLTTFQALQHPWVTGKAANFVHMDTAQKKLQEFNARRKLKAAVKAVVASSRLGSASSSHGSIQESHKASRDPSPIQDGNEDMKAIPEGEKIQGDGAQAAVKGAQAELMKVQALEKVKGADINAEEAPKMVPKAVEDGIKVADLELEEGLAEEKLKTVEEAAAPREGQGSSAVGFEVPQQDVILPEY
Description: as §1, §2, §3

[27] = biological target: T25, MST1R (Homo sapiens, UniProt Q04912); assay: KINOMEscan panel screen; assay type: binding; details: read-out: Percent Control(%)
T25 construct: purchased DiscoveRx KINOMEscan (Ambit Biosciences)

[28] = biological target: T26, MLK2 (Homo sapiens, UniProt Q02779); assay: KINOMEscan panel screen; assay type: binding; details: read-out: Percent Control(%)
T26 construct: purchased DiscoveRx KINOMEscan (Ambit Biosciences)

[29] = biological target: T27, CDC2L2 (Homo sapiens, UniProt Q9UQ88); assay: KINOMEscan panel screen; assay type: binding; details: read-out: Percent Control(%)
T27 construct: purchased DiscoveRx KINOMEscan (Ambit Biosciences)

[30] = biological target: T28, CDK7 (Homo sapiens, UniProt P50613); assay: KINOMEscan panel screen; assay type: binding; details: read-out: Percent Control(%)
T28 construct: purchased DiscoveRx KINOMEscan (Ambit Biosciences)
T28 sequence (P50613 whole entry): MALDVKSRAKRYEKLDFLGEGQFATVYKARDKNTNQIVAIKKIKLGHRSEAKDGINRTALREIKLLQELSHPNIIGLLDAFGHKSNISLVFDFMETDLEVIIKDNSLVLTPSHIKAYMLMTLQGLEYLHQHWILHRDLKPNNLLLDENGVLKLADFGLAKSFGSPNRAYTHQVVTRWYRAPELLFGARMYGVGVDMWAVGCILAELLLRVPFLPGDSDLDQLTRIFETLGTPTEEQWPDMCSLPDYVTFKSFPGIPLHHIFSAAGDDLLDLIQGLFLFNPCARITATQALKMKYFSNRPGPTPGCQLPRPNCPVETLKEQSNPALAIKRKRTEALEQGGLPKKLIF

T9 sequence (O00329 whole entry): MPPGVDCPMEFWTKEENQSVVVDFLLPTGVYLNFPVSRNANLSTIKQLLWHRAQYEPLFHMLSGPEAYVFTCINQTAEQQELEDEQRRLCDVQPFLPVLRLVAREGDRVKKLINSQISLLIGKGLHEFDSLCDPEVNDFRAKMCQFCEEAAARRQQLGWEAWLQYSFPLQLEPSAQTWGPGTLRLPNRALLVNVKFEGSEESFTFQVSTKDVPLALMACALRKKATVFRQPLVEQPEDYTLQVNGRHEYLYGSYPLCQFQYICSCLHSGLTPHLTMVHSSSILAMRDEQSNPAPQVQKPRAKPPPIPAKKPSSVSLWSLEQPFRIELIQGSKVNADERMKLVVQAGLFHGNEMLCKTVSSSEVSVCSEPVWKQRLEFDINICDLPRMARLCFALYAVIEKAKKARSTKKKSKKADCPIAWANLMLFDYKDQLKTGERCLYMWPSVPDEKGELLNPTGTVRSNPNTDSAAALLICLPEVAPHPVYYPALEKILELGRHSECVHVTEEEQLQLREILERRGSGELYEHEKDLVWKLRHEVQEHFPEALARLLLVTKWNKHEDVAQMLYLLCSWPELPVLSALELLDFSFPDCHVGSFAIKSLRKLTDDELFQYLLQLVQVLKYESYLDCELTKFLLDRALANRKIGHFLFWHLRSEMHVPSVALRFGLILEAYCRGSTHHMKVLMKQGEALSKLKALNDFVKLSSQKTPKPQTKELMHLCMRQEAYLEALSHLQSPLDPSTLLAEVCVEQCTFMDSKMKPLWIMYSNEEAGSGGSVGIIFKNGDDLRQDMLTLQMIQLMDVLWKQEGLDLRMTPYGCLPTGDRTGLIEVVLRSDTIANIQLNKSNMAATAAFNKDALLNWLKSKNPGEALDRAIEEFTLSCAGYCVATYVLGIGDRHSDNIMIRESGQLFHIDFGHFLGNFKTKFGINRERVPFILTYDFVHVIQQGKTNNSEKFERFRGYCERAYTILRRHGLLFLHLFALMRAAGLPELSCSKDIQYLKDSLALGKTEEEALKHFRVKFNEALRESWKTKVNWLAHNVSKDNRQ
Chain of ROCK1 (Q13464 whole entry): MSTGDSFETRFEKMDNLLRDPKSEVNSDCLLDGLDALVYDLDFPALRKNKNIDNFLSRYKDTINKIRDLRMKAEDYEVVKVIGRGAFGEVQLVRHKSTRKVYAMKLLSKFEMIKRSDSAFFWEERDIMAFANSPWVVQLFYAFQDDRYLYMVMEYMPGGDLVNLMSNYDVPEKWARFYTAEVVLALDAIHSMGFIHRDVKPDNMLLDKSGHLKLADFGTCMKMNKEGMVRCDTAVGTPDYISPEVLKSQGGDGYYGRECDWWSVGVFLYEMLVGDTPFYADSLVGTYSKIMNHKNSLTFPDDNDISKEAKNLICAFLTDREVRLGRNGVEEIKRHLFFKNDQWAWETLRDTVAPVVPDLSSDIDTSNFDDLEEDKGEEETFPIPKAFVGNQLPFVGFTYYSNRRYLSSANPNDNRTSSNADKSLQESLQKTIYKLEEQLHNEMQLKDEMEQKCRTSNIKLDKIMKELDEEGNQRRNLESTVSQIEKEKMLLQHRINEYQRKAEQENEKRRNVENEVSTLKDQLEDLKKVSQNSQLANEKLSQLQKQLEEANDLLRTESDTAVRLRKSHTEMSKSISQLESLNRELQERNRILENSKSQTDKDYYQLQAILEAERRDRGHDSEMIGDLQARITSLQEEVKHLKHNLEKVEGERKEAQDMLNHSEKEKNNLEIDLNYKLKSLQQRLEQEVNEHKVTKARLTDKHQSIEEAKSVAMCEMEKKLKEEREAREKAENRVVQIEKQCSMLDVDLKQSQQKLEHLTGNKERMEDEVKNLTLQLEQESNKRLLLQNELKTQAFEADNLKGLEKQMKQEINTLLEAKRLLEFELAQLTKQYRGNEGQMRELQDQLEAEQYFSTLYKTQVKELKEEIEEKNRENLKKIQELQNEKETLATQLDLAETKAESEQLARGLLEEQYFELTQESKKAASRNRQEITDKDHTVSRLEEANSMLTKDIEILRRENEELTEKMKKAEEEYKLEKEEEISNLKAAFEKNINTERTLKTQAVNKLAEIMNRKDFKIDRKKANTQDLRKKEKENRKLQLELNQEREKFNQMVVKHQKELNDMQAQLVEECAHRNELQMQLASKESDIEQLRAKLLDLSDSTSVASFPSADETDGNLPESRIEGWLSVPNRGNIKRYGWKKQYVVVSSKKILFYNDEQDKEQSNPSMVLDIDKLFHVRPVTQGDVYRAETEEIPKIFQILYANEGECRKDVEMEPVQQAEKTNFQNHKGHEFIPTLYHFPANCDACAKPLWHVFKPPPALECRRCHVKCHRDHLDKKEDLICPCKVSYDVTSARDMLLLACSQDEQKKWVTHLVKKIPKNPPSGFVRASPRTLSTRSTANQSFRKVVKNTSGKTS
T3 sequence (P07947 whole entry): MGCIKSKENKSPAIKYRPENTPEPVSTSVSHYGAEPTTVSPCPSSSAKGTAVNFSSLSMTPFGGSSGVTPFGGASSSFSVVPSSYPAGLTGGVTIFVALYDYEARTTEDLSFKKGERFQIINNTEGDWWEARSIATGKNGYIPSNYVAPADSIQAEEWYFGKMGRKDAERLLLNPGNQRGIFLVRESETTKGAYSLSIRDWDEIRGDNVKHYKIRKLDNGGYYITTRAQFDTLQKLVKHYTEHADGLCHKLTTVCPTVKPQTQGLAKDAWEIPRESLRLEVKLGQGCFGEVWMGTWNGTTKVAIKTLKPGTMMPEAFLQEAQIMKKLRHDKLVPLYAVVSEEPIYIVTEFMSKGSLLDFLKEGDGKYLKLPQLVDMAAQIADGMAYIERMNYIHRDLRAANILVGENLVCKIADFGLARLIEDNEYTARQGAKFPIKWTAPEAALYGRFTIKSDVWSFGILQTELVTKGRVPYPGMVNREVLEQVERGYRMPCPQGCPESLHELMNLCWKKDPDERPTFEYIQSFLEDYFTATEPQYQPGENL
Chain of ERN1 (O75460 19-977): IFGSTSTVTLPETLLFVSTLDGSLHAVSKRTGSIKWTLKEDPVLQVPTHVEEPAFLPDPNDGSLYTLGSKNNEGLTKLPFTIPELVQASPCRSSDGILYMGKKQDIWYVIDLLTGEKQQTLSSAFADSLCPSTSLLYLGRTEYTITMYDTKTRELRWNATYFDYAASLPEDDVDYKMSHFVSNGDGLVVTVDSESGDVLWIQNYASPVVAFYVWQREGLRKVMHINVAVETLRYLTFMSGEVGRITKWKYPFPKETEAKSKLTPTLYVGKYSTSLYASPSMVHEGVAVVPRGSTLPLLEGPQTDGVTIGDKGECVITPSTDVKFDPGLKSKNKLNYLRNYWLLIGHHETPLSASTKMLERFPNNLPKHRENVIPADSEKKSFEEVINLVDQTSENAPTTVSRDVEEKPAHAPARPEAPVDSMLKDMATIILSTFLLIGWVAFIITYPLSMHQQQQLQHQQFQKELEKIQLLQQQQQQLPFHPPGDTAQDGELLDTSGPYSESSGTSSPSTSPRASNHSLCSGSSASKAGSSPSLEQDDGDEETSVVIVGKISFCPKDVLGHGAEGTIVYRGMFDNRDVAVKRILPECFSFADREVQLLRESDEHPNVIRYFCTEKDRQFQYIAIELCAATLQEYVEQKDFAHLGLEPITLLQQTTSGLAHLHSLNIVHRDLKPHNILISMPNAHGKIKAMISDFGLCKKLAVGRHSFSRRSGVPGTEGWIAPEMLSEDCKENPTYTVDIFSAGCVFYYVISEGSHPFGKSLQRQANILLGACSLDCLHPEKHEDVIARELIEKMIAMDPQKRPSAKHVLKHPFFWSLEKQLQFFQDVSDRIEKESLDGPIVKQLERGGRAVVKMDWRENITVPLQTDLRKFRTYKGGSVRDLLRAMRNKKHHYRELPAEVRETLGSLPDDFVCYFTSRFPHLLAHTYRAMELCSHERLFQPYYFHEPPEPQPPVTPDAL
T1 sequence (P0C1S8 whole entry): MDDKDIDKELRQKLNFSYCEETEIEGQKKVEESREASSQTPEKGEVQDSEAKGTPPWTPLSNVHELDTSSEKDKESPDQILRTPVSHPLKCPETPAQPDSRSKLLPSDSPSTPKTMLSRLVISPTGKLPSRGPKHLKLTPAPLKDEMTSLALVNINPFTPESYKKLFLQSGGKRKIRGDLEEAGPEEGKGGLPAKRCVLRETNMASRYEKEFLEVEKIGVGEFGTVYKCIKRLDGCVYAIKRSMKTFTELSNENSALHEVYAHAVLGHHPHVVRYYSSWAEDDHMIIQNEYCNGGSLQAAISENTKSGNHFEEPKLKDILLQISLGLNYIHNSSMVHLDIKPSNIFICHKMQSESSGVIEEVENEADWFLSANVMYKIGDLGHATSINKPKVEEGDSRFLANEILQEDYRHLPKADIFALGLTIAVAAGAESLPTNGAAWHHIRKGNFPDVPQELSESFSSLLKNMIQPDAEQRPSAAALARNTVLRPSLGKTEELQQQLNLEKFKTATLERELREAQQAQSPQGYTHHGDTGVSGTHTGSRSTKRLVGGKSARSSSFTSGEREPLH

CC(C)(C)c1cc(NC(=O)Nc2ccc(Oc3ncnc4[nH]ncc34)c(F)c2)no1 [SKLB-677, 1-(4-(1H-pyrazolo[3,4-d]pyrimidin-4-yloxy)-3-fluorophenyl)-3-(5-tert-butylisoxazol-3-yl)urea]
remaining binding at 10 µM [1]: 78% | remaining binding at 10 µM [2]: 100% | remaining binding at 10 µM [3]: 27% | remaining binding at 10 µM [4]: 24% | remaining binding at 10 µM [5]: 100% | remaining binding at 10 µM [6]: 81% | remaining binding at 10 µM [7]: 75% | remaining binding at 10 µM [8]: 54% | remaining binding at 10 µM [9]: 98% | remaining binding at 10 µM [10]: 26% | remaining binding at 10 µM [11]: 44% | remaining binding at 10 µM [12]: 69% | remaining binding at 10 µM [13]: 33% | remaining binding at 10 µM [14]: 2.2% | remaining binding at 10 µM [15]: 100% | remaining binding at 10 µM [16]: 57% | remaining binding at 10 µM [17]: 1.2% | remaining binding at 10 µM [18]: 100% | remaining binding at 10 µM [19]: 97% | remaining binding at 10 µM [20]: 96% | remaining binding at 10 µM [21]: 100% | remaining binding at 10 µM [22]: 97% | remaining binding at 10 µM [23]: 10% | pKd [24]: < 5.00 | pKd [25]: < 5.00 | pKd [26]: < 5.00 | remaining binding at 10 µM [27]: 42% | remaining binding at 10 µM [28]: 99% | remaining binding at 10 µM [29]: 53% | remaining binding at 10 µM [30]: 3.1%
